Test results as given in ChEMBL document CHEMBL5649169 (ChemMedChem, 2018).

Assays:
[1] = target: Cytoplasmic dynein 1 heavy chain 1 (Homo sapiens) (UniProt Q14204); also: assay method not described here
[2] = target: Trifunctional enzyme subunit beta, mitochondrial (Homo sapiens) (UniProt P55084); also: assay method not described here
[3] = target: Eukaryotic translation initiation factor 2A (Homo sapiens) (UniProt Q9BY44); also: assay method not described here
[4] = target: PAT complex subunit CCDC47 (Homo sapiens) (UniProt Q96A33); also: assay method not described here
Chain of PAT complex subunit CCDC47 (Homo sapiens) (Q96A33 whole entry, one chain of several): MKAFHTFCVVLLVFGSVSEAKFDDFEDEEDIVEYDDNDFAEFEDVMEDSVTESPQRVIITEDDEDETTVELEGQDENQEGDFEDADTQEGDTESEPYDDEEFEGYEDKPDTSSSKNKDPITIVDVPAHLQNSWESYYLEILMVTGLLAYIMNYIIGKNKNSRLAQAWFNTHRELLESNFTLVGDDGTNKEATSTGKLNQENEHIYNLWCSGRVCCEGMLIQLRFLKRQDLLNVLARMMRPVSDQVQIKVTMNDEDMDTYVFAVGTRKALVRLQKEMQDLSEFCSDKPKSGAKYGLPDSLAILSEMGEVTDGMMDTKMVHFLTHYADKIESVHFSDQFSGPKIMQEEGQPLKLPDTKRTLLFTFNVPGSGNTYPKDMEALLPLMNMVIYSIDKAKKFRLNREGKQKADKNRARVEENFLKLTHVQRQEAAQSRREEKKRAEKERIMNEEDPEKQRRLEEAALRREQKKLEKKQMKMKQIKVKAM

[5] = target: Breakpoint cluster region protein (Homo sapiens) (UniProt P11274); also: assay method not described here
Ephrin type-A receptor 3 = Ephrin type-A receptor 3 (Homo sapiens, UniProt P29320); experiment: Inhibition of Nano Luc-fused full length C-terminal EPHA3 (unknown origin) expressed in HEK293T cells using NanoGlo as substrate incubated for 2 hrs in presence of tracer by NanoBRET assay; assay type: cell-based
Chain of Ephrin type-A receptor 3 (P29320 whole entry, the tested form may be a part): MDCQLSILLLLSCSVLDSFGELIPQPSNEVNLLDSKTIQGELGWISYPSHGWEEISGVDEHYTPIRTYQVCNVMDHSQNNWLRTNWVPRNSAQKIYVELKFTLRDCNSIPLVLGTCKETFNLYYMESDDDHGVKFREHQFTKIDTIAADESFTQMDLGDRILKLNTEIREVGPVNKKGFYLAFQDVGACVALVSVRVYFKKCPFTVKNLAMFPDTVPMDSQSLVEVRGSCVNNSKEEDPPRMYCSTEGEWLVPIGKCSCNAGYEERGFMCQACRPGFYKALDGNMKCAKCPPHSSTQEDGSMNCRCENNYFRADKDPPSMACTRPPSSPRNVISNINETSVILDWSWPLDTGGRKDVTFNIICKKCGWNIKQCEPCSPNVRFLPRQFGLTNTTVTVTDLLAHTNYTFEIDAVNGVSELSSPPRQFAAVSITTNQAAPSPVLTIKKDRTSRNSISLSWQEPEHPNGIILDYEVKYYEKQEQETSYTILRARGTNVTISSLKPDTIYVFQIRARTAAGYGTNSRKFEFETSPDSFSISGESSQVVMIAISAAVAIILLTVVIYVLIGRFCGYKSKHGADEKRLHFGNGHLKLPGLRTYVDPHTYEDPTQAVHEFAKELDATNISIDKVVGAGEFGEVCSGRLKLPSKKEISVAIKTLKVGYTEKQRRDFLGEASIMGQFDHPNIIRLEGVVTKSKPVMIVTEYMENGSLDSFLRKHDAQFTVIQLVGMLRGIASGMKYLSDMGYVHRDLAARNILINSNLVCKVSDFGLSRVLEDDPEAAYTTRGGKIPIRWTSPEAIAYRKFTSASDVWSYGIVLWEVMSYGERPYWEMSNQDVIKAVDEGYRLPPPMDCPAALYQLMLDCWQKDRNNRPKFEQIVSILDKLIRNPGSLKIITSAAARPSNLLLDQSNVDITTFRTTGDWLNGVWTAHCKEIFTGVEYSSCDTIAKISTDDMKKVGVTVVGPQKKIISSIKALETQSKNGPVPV

[6] = target: Stomatin-like protein 2, mitochondrial (Homo sapiens) (UniProt Q9UJZ1); also: assay method not described here
[7] = target: Exportin-T (Homo sapiens) (UniProt O43592); also: assay method not described here
[8] = target: Protein cholesin (Homo sapiens) (UniProt Q9BRJ6); also: assay method not described here
[9] = target: Bromodomain adjacent to zinc finger domain protein 1A (Homo sapiens) (UniProt Q9NRL2); also: assay method not described here
[10] = target: Triosephosphate isomerase (Homo sapiens) (UniProt P60174); also: assay method not described here
Chain of Triosephosphate isomerase (Homo sapiens) (P60174 whole entry): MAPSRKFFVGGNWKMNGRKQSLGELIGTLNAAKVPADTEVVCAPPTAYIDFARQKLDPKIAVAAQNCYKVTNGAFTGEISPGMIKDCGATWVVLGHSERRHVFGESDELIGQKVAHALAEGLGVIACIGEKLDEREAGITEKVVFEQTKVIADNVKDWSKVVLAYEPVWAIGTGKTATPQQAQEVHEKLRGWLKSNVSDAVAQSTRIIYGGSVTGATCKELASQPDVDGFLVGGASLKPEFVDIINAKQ

Cyclin-T2 (Homo sapiens) = Cyclin-T2 (Homo sapiens) (UniProt O60583); also: assay method not described here
[11] = target: 2-oxoglutarate dehydrogenase complex component E1 (Homo sapiens) (UniProt Q02218); also: assay method not described here
[12] = target: Casein kinase I isoform delta (Homo sapiens) (UniProt P48730); also: assay method not described here
[13] = target: Alpha-enolase (Homo sapiens) (UniProt P06733); also: assay method not described here
[14] = target: Transformer-2 protein homolog beta (Homo sapiens) (UniProt P62995); also: assay method not described here
Chain of Transformer-2 protein homolog beta (Homo sapiens) (P62995 whole entry): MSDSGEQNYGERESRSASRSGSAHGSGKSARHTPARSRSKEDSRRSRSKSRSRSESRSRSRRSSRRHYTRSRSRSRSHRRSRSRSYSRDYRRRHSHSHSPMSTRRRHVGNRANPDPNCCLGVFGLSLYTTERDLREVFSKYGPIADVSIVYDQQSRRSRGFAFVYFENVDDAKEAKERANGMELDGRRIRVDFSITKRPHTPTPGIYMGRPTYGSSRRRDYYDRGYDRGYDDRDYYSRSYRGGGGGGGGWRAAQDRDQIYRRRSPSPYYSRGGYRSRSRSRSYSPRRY

[15] = target: Proliferation marker protein Ki-67 (Homo sapiens) (UniProt P46013); also: assay method not described here
[16] = target: Nuclear mitotic apparatus protein 1 (Homo sapiens) (UniProt Q14980); also: assay method not described here
[17] = target: Misshapen-like kinase 1 (Homo sapiens) (UniProt Q8N4C8); also: assay method not described here
[18] = target: Small ribosomal subunit protein eS21 (Homo sapiens) (UniProt P63220); also: assay method not described here
[19] = target: Neutral alpha-glucosidase AB (Homo sapiens) (UniProt Q14697); also: assay method not described here
[20] = target: Protein SDA1 homolog (Homo sapiens) (UniProt Q9NVU7); also: assay method not described here
[21] = target: Bifunctional glutamate/proline--tRNA ligase (Homo sapiens) (UniProt P07814); also: assay method not described here
[22] = target: ATP-dependent RNA helicase DDX3X (Homo sapiens) (UniProt O00571); also: assay method not described here
[23] = target: Exocyst complex component 4 (Homo sapiens) (UniProt Q96A65); also: assay method not described here
[24] = target: Ubiquitin-associated protein 2-like (Homo sapiens) (UniProt Q14157); also: assay method not described here
[25] = target: Tyrosine-protein kinase JAK1 (Homo sapiens) (UniProt P23458); also: assay method not described here
[26] = target: Non-receptor tyrosine-protein kinase TNK1 (Homo sapiens) (UniProt Q13470); also: assay method not described here
Chain of Non-receptor tyrosine-protein kinase TNK1 (Homo sapiens) (Q13470 whole entry): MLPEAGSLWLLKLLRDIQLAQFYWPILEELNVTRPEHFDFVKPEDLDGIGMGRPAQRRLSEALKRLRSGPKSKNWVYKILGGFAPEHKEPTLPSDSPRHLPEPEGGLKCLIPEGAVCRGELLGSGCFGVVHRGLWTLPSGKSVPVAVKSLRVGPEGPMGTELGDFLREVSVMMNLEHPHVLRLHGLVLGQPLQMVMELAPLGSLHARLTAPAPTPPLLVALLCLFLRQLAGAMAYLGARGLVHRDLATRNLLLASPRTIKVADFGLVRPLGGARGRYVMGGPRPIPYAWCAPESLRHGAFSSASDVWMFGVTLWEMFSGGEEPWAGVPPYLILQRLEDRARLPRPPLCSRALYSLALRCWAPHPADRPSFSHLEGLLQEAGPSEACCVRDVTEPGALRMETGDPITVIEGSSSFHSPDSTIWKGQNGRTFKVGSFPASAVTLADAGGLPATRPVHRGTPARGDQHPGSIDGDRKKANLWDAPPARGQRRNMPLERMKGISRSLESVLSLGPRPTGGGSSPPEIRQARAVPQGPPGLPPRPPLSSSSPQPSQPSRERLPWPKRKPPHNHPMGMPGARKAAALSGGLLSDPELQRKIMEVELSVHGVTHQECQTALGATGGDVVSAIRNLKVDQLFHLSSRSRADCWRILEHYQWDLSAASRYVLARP

[27] = target: Ketosamine-3-kinase (Homo sapiens) (UniProt Q9HA64); also: assay method not described here
[28] = target: Monocarboxylate transporter 1 (Homo sapiens) (UniProt P53985); also: assay method not described here
Chain of Monocarboxylate transporter 1 (Homo sapiens) (P53985 whole entry): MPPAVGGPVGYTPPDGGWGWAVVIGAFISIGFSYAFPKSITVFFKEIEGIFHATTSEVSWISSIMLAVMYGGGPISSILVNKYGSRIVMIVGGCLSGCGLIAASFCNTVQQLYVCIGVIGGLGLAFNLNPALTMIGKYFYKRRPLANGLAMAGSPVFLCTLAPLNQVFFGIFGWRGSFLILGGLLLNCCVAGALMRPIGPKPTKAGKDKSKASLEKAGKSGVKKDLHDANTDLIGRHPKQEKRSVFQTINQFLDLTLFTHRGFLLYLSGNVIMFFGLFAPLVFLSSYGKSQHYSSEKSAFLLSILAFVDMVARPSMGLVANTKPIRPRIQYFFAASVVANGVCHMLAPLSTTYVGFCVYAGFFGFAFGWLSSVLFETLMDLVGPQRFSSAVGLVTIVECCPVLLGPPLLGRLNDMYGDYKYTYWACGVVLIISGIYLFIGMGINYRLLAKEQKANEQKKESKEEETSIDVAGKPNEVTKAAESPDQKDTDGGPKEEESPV

[29] = target: BMP-2-inducible protein kinase (Homo sapiens) (UniProt Q9NSY1); also: assay method not described here
[30] = target: Heat shock protein HSP 90-beta (Homo sapiens) (UniProt P08238); also: assay method not described here
[31] = target: Amino acid transporter heavy chain SLC3A2 (Homo sapiens) (UniProt P08195); also: assay method not described here
Chain of Amino acid transporter heavy chain SLC3A2 (Homo sapiens) (P08195 102-630): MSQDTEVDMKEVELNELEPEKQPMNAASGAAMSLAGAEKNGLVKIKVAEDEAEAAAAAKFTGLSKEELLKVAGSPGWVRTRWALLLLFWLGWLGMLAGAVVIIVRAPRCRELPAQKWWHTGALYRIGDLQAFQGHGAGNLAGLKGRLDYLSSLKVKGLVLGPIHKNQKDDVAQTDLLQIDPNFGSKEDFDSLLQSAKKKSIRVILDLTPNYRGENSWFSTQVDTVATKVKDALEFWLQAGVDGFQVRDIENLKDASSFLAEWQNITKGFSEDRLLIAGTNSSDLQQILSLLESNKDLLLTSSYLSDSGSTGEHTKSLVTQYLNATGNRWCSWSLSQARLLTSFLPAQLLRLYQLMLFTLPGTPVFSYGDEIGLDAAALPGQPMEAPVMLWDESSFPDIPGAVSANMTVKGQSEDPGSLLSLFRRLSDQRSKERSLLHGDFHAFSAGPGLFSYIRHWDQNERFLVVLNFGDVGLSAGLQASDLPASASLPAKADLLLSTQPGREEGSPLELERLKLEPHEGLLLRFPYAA

[32] = target: Cerebellar degeneration-related protein 2 (Homo sapiens) (UniProt Q01850); also: assay method not described here
[33] = target: Pre-mRNA-processing factor 6 (Homo sapiens) (UniProt O94906); also: assay method not described here
[34] = target: Tricarboxylate transport protein, mitochondrial (Homo sapiens) (UniProt P53007); also: assay method not described here
Chain of Tricarboxylate transport protein, mitochondrial (Homo sapiens) (P53007 14-311 limits assumed): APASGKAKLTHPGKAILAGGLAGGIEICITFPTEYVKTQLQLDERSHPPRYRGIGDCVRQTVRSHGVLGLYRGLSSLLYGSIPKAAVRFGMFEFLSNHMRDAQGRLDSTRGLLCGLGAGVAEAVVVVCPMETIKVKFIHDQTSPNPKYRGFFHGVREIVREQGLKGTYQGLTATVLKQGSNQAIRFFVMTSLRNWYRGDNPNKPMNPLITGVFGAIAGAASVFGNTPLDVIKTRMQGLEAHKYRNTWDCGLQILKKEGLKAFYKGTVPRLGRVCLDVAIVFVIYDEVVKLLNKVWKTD

[35] = target: Serrate RNA effector molecule homolog (Homo sapiens) (UniProt Q9BXP5); also: assay method not described here
Chain of Serrate RNA effector molecule homolog (Homo sapiens) (Q9BXP5 whole entry): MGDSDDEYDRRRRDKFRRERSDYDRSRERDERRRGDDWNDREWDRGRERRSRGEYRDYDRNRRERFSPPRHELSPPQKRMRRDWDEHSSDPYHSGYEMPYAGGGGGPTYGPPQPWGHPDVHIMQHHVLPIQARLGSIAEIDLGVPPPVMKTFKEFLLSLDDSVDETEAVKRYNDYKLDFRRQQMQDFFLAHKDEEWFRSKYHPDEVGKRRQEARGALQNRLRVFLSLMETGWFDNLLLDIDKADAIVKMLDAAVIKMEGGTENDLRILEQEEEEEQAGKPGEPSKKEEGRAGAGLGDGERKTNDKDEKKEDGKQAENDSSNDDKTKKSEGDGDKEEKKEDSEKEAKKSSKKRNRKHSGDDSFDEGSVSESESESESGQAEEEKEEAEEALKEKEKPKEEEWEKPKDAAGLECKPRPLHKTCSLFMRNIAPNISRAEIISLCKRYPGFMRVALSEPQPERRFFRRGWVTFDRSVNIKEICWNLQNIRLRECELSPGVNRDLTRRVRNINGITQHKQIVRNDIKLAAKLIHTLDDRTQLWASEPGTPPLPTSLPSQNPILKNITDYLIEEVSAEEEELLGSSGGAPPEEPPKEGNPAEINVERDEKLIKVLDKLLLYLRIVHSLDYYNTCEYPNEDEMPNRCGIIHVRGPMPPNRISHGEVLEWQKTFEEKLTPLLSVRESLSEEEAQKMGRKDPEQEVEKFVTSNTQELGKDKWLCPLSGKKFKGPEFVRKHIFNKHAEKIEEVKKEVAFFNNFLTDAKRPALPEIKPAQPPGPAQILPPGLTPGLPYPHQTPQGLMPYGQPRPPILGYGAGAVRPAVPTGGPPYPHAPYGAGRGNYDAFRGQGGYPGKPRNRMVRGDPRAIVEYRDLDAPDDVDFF

[36] = target: Asparagine--tRNA ligase, cytoplasmic (Homo sapiens) (UniProt O43776); also: assay method not described here
[37] = target: Large ribosomal subunit protein uL1 (Homo sapiens) (UniProt P62906); also: assay method not described here
[38] = target: Ras-related protein Rab-14 (Homo sapiens) (UniProt P61106); also: assay method not described here
[39] = target: Eukaryotic initiation factor 4A-I (Homo sapiens) (UniProt P60842); also: assay method not described here
[40] = target: Serine/threonine-protein kinase PAK 2 (Homo sapiens) (UniProt Q13177); also: assay method not described here
[41] = target: Methionine--tRNA ligase, cytoplasmic (Homo sapiens) (UniProt P56192); also: assay method not described here
[42] = target: Ras association domain-containing protein 5 (Homo sapiens) (UniProt Q8WWW0); also: assay method not described here
Peflin (Homo sapiens) = Peflin (Homo sapiens) (UniProt Q9UBV8); also: assay method not described here
For ED50 in this document: assay method not described here.

SMILES: Cc1ccc(C(=O)Nc2cccc(C(F)(F)F)c2)cc1Nc1nc(-c2cccnc2)nc2c1cnn2C
- ED50 [1]: 1.3 µM
- ED50 [2]: 0.655 µM
- ED50 [3]: 25.7 µM
- ED50 [4]: 0.136 µM
- ED50 [5]: 0.488 µM
- IC50 (Ephrin type-A receptor 3): 0.0003 µM
- ED50 [6]: 0.0199 µM
- ED50 [7]: 1.22 µM
- ED50 [8]: 0.0151 µM
- ED50 [9]: 0.532 µM
- ED50 [10]: 0.183 µM
- ED50 (Cyclin-T2 (Homo sapiens)): 12.8 µM
- ED50 [11]: 0.0247 µM
- ED50 [12]: 10.4 µM
- ED50 [13]: 4.37 µM
- ED50 [14]: 0.0121 µM
- ED50 [15]: 4.64 µM
- ED50 [16]: 0.000308 µM
- ED50 [17]: 6.35 µM
- ED50 [18]: 60 µM
- ED50 [19]: 4.09 µM
- ED50 [20]: 0.065 µM
- ED50 [21]: 0.0324 µM
- ED50 [22]: 3.01 µM
- ED50 [23]: 11.4 µM
- ED50 [24]: 13.3 µM
- ED50 [25]: 0.0138 µM
- ED50 [26]: 18.8 µM
- ED50 [27]: 277 µM
- ED50 [28]: 0.0482 µM
- ED50 [29]: 0.0018 µM
- ED50 [30]: 0.000546 µM
- ED50 [31]: 5.57 µM
- ED50 [32]: 26.2 µM
- ED50 [33]: 151 µM
- ED50 [34]: 4.38 µM
- ED50 [35]: 1.13 µM
- ED50 (Homo sapiens): 4.25 µM
- ED50 [36]: 0.0284 µM
- ED50 [37]: 0.577 µM
- ED50 [38]: 2.88 µM
- ED50 [39]: 0.0241 µM
- ED50 [40]: 19.6 µM
- ED50 [41]: 0.0806 µM
- ED50 [42]: 6.41 µM
- ED50 (Peflin (Homo sapiens)): 6.52 µM

SMILES: Cc1ccc(C(=O)Nc2cccc(C(F)(F)F)c2)cc1Nc1nc(-c2cccnc2)nc2nn(C)cc12
- ED50 [1]: 51200 µM
- ED50 [2]: 0.00935 µM
- ED50 [3]: 0.0386 µM
- ED50 [4]: 40.6 µM
- ED50 [5]: 0.852 µM
- IC50 (Ephrin type-A receptor 3): 0.05 µM
- ED50 [6]: 0.0386 µM
- ED50 [7]: 0.0299 µM
- ED50 [8]: 39.4 µM
- ED50 [9]: 0.0186 µM
- ED50 [10]: 0.0625 µM
- ED50 (Cyclin-T2 (Homo sapiens)): 0.0632 µM
- ED50 [11]: 12.5 µM
- ED50 [12]: 0.0638 µM
- ED50 [13]: 0.053 µM
- ED50 [14]: 0.537 µM
- ED50 [15]: 0.0399 µM
- ED50 [16]: 0.0318 µM
- ED50 [17]: 36.4 µM
- ED50 [18]: 0.00683 µM
- ED50 [19]: 0.0402 µM
- ED50 [20]: 0.000949 µM
- ED50 [21]: 1.21 µM
- ED50 [22]: 0.00683 µM
- ED50 [23]: 0.0488 µM
- ED50 [24]: 14.3 µM
- ED50 [25]: 0.0748 µM
- ED50 [26]: 0.064 µM
- ED50 [27]: 0.0183 µM
- ED50 [28]: 2.98 µM
- ED50 [29]: 0.11 µM
- ED50 [30]: 0.083 µM
- ED50 [31]: 0.362 µM
- ED50 [32]: 0.303 µM
- ED50 [33]: 2.11 µM
- ED50 [34]: 4.79 µM
- ED50 [35]: 1.29 µM
- ED50 (Homo sapiens): 0.0418 µM
- ED50 [36]: 5.57 µM
- ED50 [37]: 8.92 µM
- ED50 [38]: 4.44 µM
- ED50 [39]: 58.1 µM
- ED50 [40]: 42.5 µM
- ED50 [41]: 6.54 µM
- ED50 [42]: 4.74 µM
- ED50 (Peflin (Homo sapiens)): 10.8 µM
